In the NIST ThermoML archive (doi:10.1021/je200811n):
Values joined by “and” are separate entries in the source; they are usually repeats but may differ in a detail not shown here. Equal entries are not always repeated.

Details: Hot wire method

F/C=C/C(F)(F)F [trans-1,3,3,3-tetrafluoropropene]
Details	thermal conductivity
341.16 K, 8206 kPa, Liquid	0.06693 W/m/K
341.17 K, 3028 kPa, Liquid	0.06204 W/m/K
341.17 K, 12132 kPa, Liquid	0.07036 W/m/K
341.2 K, 1573 kPa, Liquid	0.06027 W/m/K
341.38 K, 96 kPa, Gas	0.01689 W/m/K
341.39 K, 20076 kPa, Liquid	0.07508 W/m/K
341.4 K, 194 kPa, Gas	0.01707 W/m/K
341.4 K, 3026 kPa, Liquid	0.06202 W/m/K
341.42 K, 8129 kPa, Liquid	0.06706 W/m/K
341.42 K, 16390 kPa, Liquid	0.07285 W/m/K
341.44 K, 21979 kPa, Liquid	0.07653 W/m/K
341.45 K, 1581 kPa, Liquid	0.06025 W/m/K
341.48 K, 12128 kPa, Liquid	0.07023 W/m/K
341.48 K, 20072 kPa, Liquid	0.07503 W/m/K
341.49 K, 5174 kPa, Liquid	0.06424 W/m/K
341.5 K, 3025 kPa, Liquid	0.06178 W/m/K
341.51 K, 16388 kPa, Liquid	0.07271 W/m/K
341.52 K, 8125 kPa, Liquid	0.0669 W/m/K
341.52 K, 21981 kPa, Liquid	0.07638 W/m/K
341.54 K, 1585 kPa, Liquid	0.05998 W/m/K
341.58 K, 5172 kPa, Liquid	0.06405 W/m/K
341.58 K, 8204 kPa, Liquid	0.06619 W/m/K
341.58 K, 12127 kPa, Liquid	0.07002 W/m/K
341.64 K, 194 kPa, Gas	0.01696 W/m/K
341.72 K, 673 kPa, Gas	0.01756 W/m/K
341.75 K, 673 kPa, Gas	0.01724 W/m/K
341.76 K, 3022 kPa, Liquid	0.0618 W/m/K
341.77 K, 449 kPa, Gas	0.01756 W/m/K
341.77 K, 450 kPa, Gas	0.01753 W/m/K
341.81 K, 1588 kPa, Liquid	0.06 W/m/K
341.81 K, 20066 kPa, Liquid	0.07498 W/m/K
341.83 K, 1416 kPa, Gas	0.01808 W/m/K
341.84 K, 16385 kPa, Liquid	0.0727 W/m/K
341.84 K, 21982 kPa, Liquid	0.07632 W/m/K
341.87 K, 297 kPa, Gas	0.0174 W/m/K
341.88 K, 8122 kPa, Liquid	0.06684 W/m/K
341.91 K, 194 kPa, Gas	0.01763 W/m/K
341.92 K, 12126 kPa, Liquid	0.06996 W/m/K
341.92 K, 20063 kPa, Liquid	0.07481 W/m/K
341.94 K, 8199 kPa, Liquid	0.0668 W/m/K
341.95 K, 21979 kPa, Liquid	0.07618 W/m/K
341.96 K, 16381 kPa, Liquid	0.07254 W/m/K
341.97 K, 1251 kPa, Gas	0.01812 W/m/K
341.97 K, 5173 kPa, Liquid	0.06395 W/m/K
342 K, 8119 kPa, Liquid	0.06663 W/m/K
342.04 K, 96 kPa, Gas	0.0178 W/m/K
342.04 K, 671 kPa, Gas	0.01723 W/m/K
342.04 K, 1049 kPa, Gas	0.01784 W/m/K
342.04 K, 1050 kPa, Gas	0.01784 W/m/K
342.04 K, 12122 kPa, Liquid	0.06981 W/m/K
342.06 K, 8193 kPa, Liquid	0.0666 W/m/K
342.08 K, 870 kPa, Gas	0.01766 W/m/K
342.09 K, 450 kPa, Gas	0.0176 W/m/K
342.09 K, 868 kPa, Gas	0.01764 W/m/K
342.09 K, 5187 kPa, Liquid	0.06375 W/m/K
342.1 K, 450 kPa, Gas	0.01757 W/m/K
342.19 K, 297 kPa, Gas	0.0174 W/m/K
342.2 K, 297 kPa, Gas	0.01731 W/m/K
342.25 K, 1250 kPa, Gas	0.01811 W/m/K
342.26 K, 194 kPa, Gas	0.01748 W/m/K
342.26 K, 1414 kPa, Gas	0.01822 W/m/K
342.27 K, 20059 kPa, Liquid	0.07476 W/m/K
342.3 K, 21979 kPa, Liquid	0.07611 W/m/K
342.32 K, 16372 kPa, Liquid	0.07244 W/m/K
342.33 K, 1047 kPa, Gas	0.01784 W/m/K
342.33 K, 1048 kPa, Gas	0.01781 W/m/K
342.36 K, 669 kPa, Gas	0.01728 W/m/K
342.37 K, 670 kPa, Gas	0.01729 W/m/K
342.38 K, 866 kPa, Gas	0.01767 W/m/K
342.39 K, 867 kPa, Gas	0.01765 W/m/K
342.4 K, 8117 kPa, Liquid	0.06658 W/m/K
342.42 K, 450 kPa, Gas	0.01758 W/m/K
342.43 K, 451 kPa, Gas	0.01761 W/m/K
342.43 K, 12120 kPa, Liquid	0.06971 W/m/K
342.43 K, 21977 kPa, Liquid	0.07598 W/m/K
342.44 K, 97 kPa, Gas	0.01786 W/m/K
342.46 K, 8190 kPa, Liquid	0.06655 W/m/K
342.46 K, 16363 kPa, Liquid	0.07249 W/m/K
342.55 K, 1411 kPa, Gas	0.01807 W/m/K
342.56 K, 296 kPa, Gas	0.01736 W/m/K and 0.01734 W/m/K
342.56 K, 1249 kPa, Gas	0.01814 W/m/K
342.56 K, 8113 kPa, Liquid	0.06632 W/m/K
342.58 K, 12118 kPa, Liquid	0.06949 W/m/K
342.59 K, 1260 kPa, Gas	0.01776 W/m/K
342.64 K, 1045 kPa, Gas	0.01782 W/m/K
342.64 K, 1046 kPa, Gas	0.01782 W/m/K
342.65 K, 194 kPa, Gas	0.01771 W/m/K
342.71 K, 668 kPa, Gas	0.01733 W/m/K
342.71 K, 864 kPa, Gas	0.01769 W/m/K
342.72 K, 865 kPa, Gas	0.01767 W/m/K
342.78 K, 20073 kPa, Liquid	0.07479 W/m/K
342.79 K, 450 kPa, Gas	0.01763 W/m/K
342.79 K, 451 kPa, Gas	0.01763 W/m/K
342.81 K, 21978 kPa, Liquid	0.07589 W/m/K
342.85 K, 97 kPa, Gas	0.01784 W/m/K
342.85 K, 16357 kPa, Liquid	0.07241 W/m/K
342.94 K, 296 kPa, Gas	0.0174 W/m/K and 0.01739 W/m/K
342.96 K, 20077 kPa, Liquid	0.07456 W/m/K
342.97 K, 1044 kPa, Gas	0.01783 W/m/K
342.97 K, 21978 kPa, Liquid	0.07571 W/m/K
342.98 K, 1044 kPa, Gas	0.01784 W/m/K
342.98 K, 12116 kPa, Liquid	0.06939 W/m/K
343.02 K, 16352 kPa, Liquid	0.07225 W/m/K
343.05 K, 862 kPa, Gas	0.01767 W/m/K
343.05 K, 863 kPa, Gas	0.0177 W/m/K
343.06 K, 194 kPa, Gas	0.01766 W/m/K
343.07 K, 666 kPa, Gas	0.01736 W/m/K
343.08 K, 667 kPa, Gas	0.01735 W/m/K
343.16 K, 1405 kPa, Gas	0.01819 W/m/K
343.25 K, 1255 kPa, Gas	0.01787 W/m/K
343.28 K, 96 kPa, Gas	0.01785 W/m/K
343.32 K, 1043 kPa, Gas	0.01783 W/m/K
343.35 K, 296 kPa, Gas	0.01753 W/m/K
343.48 K, 194 kPa, Gas	0.01763 W/m/K

Details	thermal conductivity [W/m/K]
343.15 K, Liquid	0.05993
